Experimental data reported in patent US12649733B2, “3,6-diamino-pyridazin-3-yl derivatives, pharmaceutical compositions containing them and their uses as pro-apoptotic agents” (LES LABORATOIRES SERVIER, priority 2019, dated 2026).

How the values were obtained:
BCLXL = BCLXL (Homo sapiens, UniProt Q07817, V10N/V9A); assay: AlphaLISA assay (BIM peptide displacement); assay type: binding; conditions: 20 pM protein, 1 nM peptide
Description: AlphaLISA assay measures an increase in alpha signal upon binding biotinylated GST(1-218)-(FACTOR_XA)-hs ? (2-209)(SEQ ID:02—GST UniProtKB® primary accession number P08515 and BCLXL UniProtKB® primary accession number Q07817-1) coupled to a Streptavidin labeled Alpha donor bead to N-terminally labeled peptide derived from BIM (Fluorescein-betaAla-Ahx-SEQID:05, wherein SEQ ID:05 is […]) coupled to an Anti-FTIC AlphaLISA acceptor bead.
GST(1-218)(FACTOR_XA)-hs ? (2-209) was biotinylated in 50 mM phosphate buffer using a 20 fold excess of EZ Link NHS-LC-Biotin (thermoFisher catalogue number 21336) overnight at 4° C.
The addition of a compound which binds competitively to the same site as the peptide will result in an decrease in the Alpha signal of the available donor bead-protein-peptide-acceptor bead complex due to displacement of the peptide.
An 11-point serial dilution of each compound was prepared in DMSO, the final buffer conditions were 10 mM 4-(2-hydroxyethyl)-1-piperazineethanesulfonic acid [HEPES], 150 mM NaCl, 0.05% Tween 20, pH 7.4 and 4% DMSO. The final protein concentration in the assay was 20 pM with the peptide present at 1 nM). Alpha beads were used at a final concentration of 5 ug/mL. The experiments were incubated for overnight at 23° C. after acceptor bead addition. Finally the donor bead is added and incubated for 2 hours at 23° C. before Alpha signal measured on a Biotek Synergy2 plate reader (Excitation 680 nm, emission 615 nm).

H146 cells = assay: H146 cell viability, MTT assay; assay type: cell-based; conditions: Homo sapiens, NCI-H146, 48 h, 48 h exposure
Method in brief: (§1)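 Cells grown in RPMI 1640 with 10% heat-inactivated FBS at 37° C, 5% CO2, exposed 48 h to nine 3.16-fold serial compound dilutions in triplicate. MTT added for 4 h, SDS/HCl solubilisation overnight, absorbance at 540 nm; IC50 by four-parameter fit.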

Bcl-xL protein = target: T1, Bcl-xL protein (Homo sapiens, UniProt Q07817, N197C); assay: Fluorescence quenching assay (PUMA peptide displacement); assay type: binding; conditions: 1 nM protein, 400 nM peptide, 2 hours at 23° C.; KI determined from IC50
T1 construct: (2-197)[N197C]; His-His (two His8 stretches joined by a Gly/Ala/Ser/Thr linker)
T1 sequence (Q07817 2-197 N197C): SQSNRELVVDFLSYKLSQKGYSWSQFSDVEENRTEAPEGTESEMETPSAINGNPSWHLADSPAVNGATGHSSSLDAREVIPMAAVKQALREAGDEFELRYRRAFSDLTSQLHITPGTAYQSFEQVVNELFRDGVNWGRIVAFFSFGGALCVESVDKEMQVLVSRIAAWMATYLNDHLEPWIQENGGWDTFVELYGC
Method in brief: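 Displacement of a TQ5WS-quencher-labelled PUMA peptide (400 nM) from Cy5-labelled His-tagged Bcl-xL 2-197 N197C (1 nM) raises fluorescence. An 11-point compound dilution was incubated 2 h at 23 °C in HEPES 10 mM, NaCl 150 mM, 0.05% Tween 20, pH 7.4, 5% DMSO. Fluorescence was read at Ex 620/Em 680 nm, and KI was derived from IC50.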

MOLT-4 cells = assay: MOLT-4 cell viability, MTT assay; assay type: cell-based; conditions: Homo sapiens, MOLT-4, 48 h, 48 h exposure
Method in brief: as §1

Chain of BCLXL (Q07817 with tags, fused parts or gaps V9A/V10N): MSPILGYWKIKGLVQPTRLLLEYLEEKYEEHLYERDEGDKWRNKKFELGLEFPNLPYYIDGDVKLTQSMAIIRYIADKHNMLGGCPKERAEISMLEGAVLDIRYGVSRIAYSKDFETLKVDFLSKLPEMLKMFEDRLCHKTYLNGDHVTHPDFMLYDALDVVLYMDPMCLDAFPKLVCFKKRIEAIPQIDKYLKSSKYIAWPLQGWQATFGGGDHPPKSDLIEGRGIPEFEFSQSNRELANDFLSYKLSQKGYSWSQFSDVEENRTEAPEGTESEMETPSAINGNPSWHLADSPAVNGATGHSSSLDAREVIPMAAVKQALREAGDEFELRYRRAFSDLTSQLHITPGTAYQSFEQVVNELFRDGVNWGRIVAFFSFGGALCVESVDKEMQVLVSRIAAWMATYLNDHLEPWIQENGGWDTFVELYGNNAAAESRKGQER

Row | IC50 (BCLXL) [nM] | IC50 (H146 cells) [nM] | Ki (Bcl-xL protein) [nM] | IC50 (MOLT-4 cells) [nM] | Structure (SMILES)
1 | 0.48 | – | – | – | Cc1cc(N(CCCCO)c2nc(C(=O)O)cs2)nnc1Nc1nc2ccccc2s1 [Example 110, 2-[[6-(1,3-Benzothiazol-2-ylamino)-5-methyl-pyridazin-3-yl]-(4-hydroxybutyl)amino]thiazole-4-carboxylic acid]
2 | 27 | – | – | – | COC(CO)CN(c1cc(C)c(Nc2nc3ccccc3s2)nn1)c1nc(C(=O)O)cs1 (stereo not shown) [Example 111, 2-[[6-(1,3-Benzothiazol-2-ylamino)-5-methyl-pyridazin-3-yl]-(3-hydroxy-2-methoxy-propyl)amino]thiazole-4-carboxylic acid]
3 | 0.058 | – | – | – | COc1ccc(CN(C)CC#Cc2ccc(OCCCc3sc(N(CCC(O)CO)c4cc(C)c(Nc5nc6ccccc6s5)nn4)nc3C(=O)O)c(F)c2)cc1 (stereo not shown) [Example 121, 2-[[6-(1,3-Benzothiazol-2-ylamino)-5-methyl-pyridazin-3-yl]-(3,4-dihydroxybutyl)amino]-5-[3-[2-fluoro-4-[3-[(4-methoxyphenyl)methyl-methyl-amino]prop-1-ynyl]phenoxy]propyl]thiazole-4-carboxylic acid]
4 | 8.6 | – | – | – | Cc1cc(N(CCCCCO)c2nc(C(=O)O)cs2)nnc1Nc1nc2ccccc2s1 [Example 125, 2-[[6-(1,3-Benzothiazol-2-ylamino)-5-methyl-pyridazin-3-yl]-(5-hydroxypentyl)amino]thiazole-4-carboxylic acid]
5 | 0.023 | – | – | – | Cc1cc(N(CCCO)c2nc(C(=O)O)c(CCCOc3ccc(C#CCN(C)C)cc3F)s2)nnc1Nc1nc2ccccc2s1 [Example 126, 2-[[6-(1,3-Benzothiazol-2-ylamino)-5-methyl-pyridazin-3-yl]-(3-hydroxypropyl)amino]-5-[3-[4-[3-(dimethylamino)prop-1-ynyl]-2-fluoro-phenoxy]propyl]thiazole-4-carboxylic acid]
6 | 2.7 | – | – | – | Cc1cc(N(CCCC(O)CN2CCOCC2)c2nc(C(=O)O)cs2)nnc1Nc1nc2ccccc2s1 (stereo not shown) [Example 131, 2-[[6-(1,3-Benzothiazol-2-ylamino)-5-methyl-pyridazin-3-yl]-(4-hydroxy-5-morpholino-pentyl)amino]thiazole-4-carboxylic acid]
7 | 7.7 | – | – | – | COCC(O)CCCN(c1cc(C)c(Nc2nc3ccccc3s2)nn1)c1nc(C(=O)O)cs1 (stereo not shown) [Example 132, 2-[[6-(1,3-Benzothiazol-2-ylamino)-5-methyl-pyridazin-3-yl]-(4-hydroxy-5-methoxy-pentyl)amino]thiazole-4-carboxylic acid]
8 | – | 32.4 | 0.0014 | 61 | Cc1cc(N(C)c2nc(C(=O)[O-])c(CCCOc3ccc(C#CCNCC[N+](C)(C)C)cc3F)s2)nnc1Nc1nc2ccccc2s1 [Example 222, 2-[3-[4-[3-[2-[[6-(1,3-Benzothiazol-2-ylamino)-5-methyl-pyridazin-3-yl]-methyl-amino]-4-carboxy-thiazol-5-yl]propoxy]-3-fluoro-phenyl]prop-2-ynylamino]ethyl-trimethyl-ammonium]
9 | – | 7.46 | 0.0018 | 3.13 | Cc1cc(N(C)c2nc(C(=O)O)c(CCCOc3ccc(C#CCNCCN(C)C)cc3F)s2)nnc1Nc1nc2ccccc2s1 [Example 223, 2-[[6-(1,3-Benzothiazol-2-ylamino)-5-methyl-pyridazin-3-yl]-methyl-amino]-5-[3-[4-[3-[2-(dimethylamino)ethylamino]prop-1-ynyl]-2-fluoro-phenoxy]propyl]thiazole-4-carboxylic acid]
10 | – | 1160 | 0.002 | 2180 | CNCC#Cc1ccc(OCCCc2sc(N(CCCCCC[N+](C)(C)C)c3cc(C)c(Nc4nc5ccccc5s4)nn3)nc2C(=O)[O-])c(F)c1 [Example 224, 2-[[6-(1,3-Benzothiazol-2-ylamino)-5-methyl-pyridazin-3-yl]-[6-(trimethylammonio)hexyl]amino]-5-[3-[2-fluoro-4-[3-(methylamino)prop-1-ynyl]phenoxy]propyl]thiazole-4-carboxylate]
11 | – | 351 | 0.0035 | 1080 | Cc1cc(N(CCCCC[N+](C)(C)CCCO)c2nc(C(=O)[O-])c(CCCOc3ccc(C#CCN(C)C)cc3F)s2)nnc1Nc1nc2ccccc2s1 [Example 225, 2-[[6-(1,3-Benzothiazol-2-ylamino)-5-methyl-pyridazin-3-yl]-[5-[3-hydroxypropyl(dimethyl)ammonio]pentyl]amino]-5-[3-[4-[3-(dimethylamino)prop-1-ynyl]-2-fluoro-phenoxy]propyl]thiazole-4-carboxylate]
12 | – | 437 | 0.0014 | 1640 | CNCC#Cc1ccc(OCCCc2sc(N(CCCCC[N+](C)(C)CCO)c3cc(C)c(Nc4nc5ccccc5s4)nn3)nc2C(=O)[O-])c(F)c1 [Example 229, 2-[[6-(1,3-Benzothiazol-2-ylamino)-5-methyl-pyridazin-3-yl]-[5-[2-hydroxyethyl(dimethyl)ammonio]pentyl]amino]-5-[3-[2-fluoro-4-[3-(methylamino)prop-1-ynyl]phenoxy]propyl]thiazole-4-carboxylate]
13 | – | 1380 | 0.0014 | 2180 | CNCC#Cc1ccc(OCCCc2sc(N(CCCCC[N+](C)(C)CCCO)c3cc(C)c(Nc4nc5ccccc5s4)nn3)nc2C(=O)[O-])c(F)c1 [Example 230, 2-[[6-(1,3-Benzothiazol-2-ylamino)-5-methyl-pyridazin-3-yl]-[5-[3-hydroxypropyl(dimethyl)ammonio]pentyl]amino]-5-[3-[2-fluoro-4-[3-(methylamino)prop-1-ynyl]phenoxy]propyl]thiazole-4-carboxylate]
14 | – | 1610 | 0.0013 | 1190 | CNCC#Cc1ccc(OCCCc2sc(N(CCCCC[N+](C)(C)CC(=O)O)c3cc(C)c(Nc4nc5ccccc5s4)nn3)nc2C(=O)[O-])c(F)c1 [Example 231, 2-[[6-(1,3-Benzothiazol-2-ylamino)-5-methyl-pyridazin-3-yl]-[5-[carboxymethyl(dimethyl)ammonio]pentyl]amino]-5-[3-[2-fluoro-4-[3-(methylamino)prop-1-ynyl]phenoxy]propyl]thiazole-4-carboxylate]
15 | – | 2.55 | 0.0043 | 0.879 | Cc1cc(N(C)c2nc(C(=O)O)c(CCCOc3ccc(C#CCN(C)C)cc3)s2)nnc1Nc1nc2ccccc2s1 [Example 233, 2-[[6-(1,3-Benzothiazol-2-ylamino)-5-methyl-pyridazin-3-yl]-methyl-amino]-5-[3-[4-[3-(dimethylamino)prop-1-ynyl]phenoxy]propyl]thiazole-4-carboxylic acid]
16 | – | 15 | 0.0016 | 3.8 | Cc1cc(N(C)c2nc(C(=O)O)c(CCCOc3ccc(C45CC(CN(C)C)(C4)C5)cc3)s2)nnc1Nc1nc2ccccc2s1 [Example 234, 2-[[6-(1,3-Benzothiazol-2-ylamino)-5-methyl-pyridazin-3-yl]-methyl-amino]-5-[3-[4-[1-[(dimethylamino)methyl]-3-bicyclo[1.1.1]pentanyl]phenoxy]propyl]thiazole-4-carboxylic acid]
17 | – | 413 | 0.0011 | 413 | CNCC#Cc1ccc(OCCCc2sc(N(CCC[N+](C)(C)CCCS(=O)(=O)[O-])c3cc(C)c(Nc4nc5ccccc5s4)nn3)nc2C(=O)O)c(F)c1 [Example 235, 3-[3-[[6-(1,3-Benzothiazol-2-ylamino)-5-methyl-pyridazin-3-yl]-[4-carboxy-5-[3-[2-fluoro-4-[3-(methylamino)prop-1-ynyl]phenoxy]propyl]thiazol-2-yl]amino]propyl-dimethyl-ammonio]propane-1-sulfonate]
